For twelve molecules, GI50 and TGI results are on record in PubChem BioAssay (NCI).

Holding throughout (assay): NCI anticancer screen, dose series, 48 h
Assay [1] relates to A498 renal.
Assay [2] has as its system MALME-3M melanoma.
For assay [3], the system named is NCI-H23 lung.
For assay [4], the system named is OVCAR-3 ovarian.
The test system of assay [5] is OVCAR-5 ovarian.
Assay [6] has as its system PC-3 prostate.
Assay [7] has as its system SF-539 CNS.
Assay [8] concerns SR leukemia.
Assay [9] deals with SW-620 colon.
For assay [10], the system named is UACC-62 melanoma.

Several values for one entry are separate records, joined by “and”; a condition that tells them apart may be missing. Identical values can stand only once.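 96-well plates; 48 h exposure; 5 concentrations. Endpoints by linear interpolation between flanking doses. Not reached: highest tested concentration assigned. Abbreviation: GI50, concentration required for 50% inhibition of growth. TGI: total growth inhibition.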

`Cc1ccc(Cl)cc1Nc1nc(C(F)(F)F)ccc1C(=O)N1CCN(c2cccc(Cl)c2)CC1`: the GI50 was 65.6 µM in assay [1]; more than 100 µM in [2]; more than 100 µM in assay [3]; 8.27 µM in [4]; more than 100 µM in [5]; 21.7 µM in assay [6]. Further, the GI50 in [7] was more than 100 µM; in assay [8] it was 3.06 µM; in assay [9], more than 100 µM; in assay [10], 69.4 µM. The TGI in assay [1], in assay [2], in assay [3], in assay [4], in [5] and in [6] was more than 100 µM each time. Besides, the TGI in assay [7], in assay [8], in assay [9] and in assay [10] was more than 100 µM each time.
In the case of `Cc1cn2c(/C=C3\C(=O)Nc4ccc(O)cc43)c(-c3ccc(Cl)cc3)nc2s1`, the GI50 in assay [1] is 16.8 µM; in [2] it was 14.3 µM; in [3], 15.8 µM; in [4] it was 16.9 µM; in [5], 21.2 µM; in assay [6] it was 22.2 µM. Further, the GI50 is 17.5 µM in [7], 2.59 µM in [8], 35.6 µM in [9] and 9.4 µM in assay [10]. Further, the TGI in [1] is 38.8 µM; in assay [2], 42 µM; in assay [3] it was 35.8 µM; in [4] it was 38.3 µM; in assay [5], 51.4 µM; in assay [6], more than 100 µM. Further, the TGI is 33.9 µM in [7], 7.63 µM in assay [8], more than 100 µM in assay [9] and 56.2 µM in [10].
For the molecule `N#Cc1c(-c2ccc(F)cc2)c(-c2ccc(F)cc2)nn(CCO)c1=O`, the TGI in [1] is more than 54.2 µM; in [2], more than 100 µM; in assay [3], more than 78.3 µM; in assay [4], 0.69 µM; in assay [5], more than 100 µM; in assay [6], 54.7 µM. Moreover, the TGI is 0.553 µM in assay [7], more than 100 µM in assay [8], more than 100 µM in [9] and more than 77 µM in [10].
As to `CCCCCCNC(=O)c1nc(-c2ccccc2)oc1Cc1ccc(OP(=O)(O)O)cc1`, the GI50 in assay [1] was 12.5 µM; in assay [2] it was 19.3 µM; in assay [3] it was 16.7 µM; in assay [4], 17.1 µM; in assay [5], 14.6 µM; in assay [6], 17.9 µM. Besides, the GI50 in assay [7] was 16.9 µM; in assay [8], 21.5 µM; in assay [9], 16.8 µM; in assay [10] it was 14 µM. Moreover, the TGI in assay [1] worked out at 25.1 µM; in assay [2], 37 µM; in assay [3] it was 35.4 µM; in [4], 31.4 µM; in [5], 28.5 µM; in assay [6], 34.5 µM. The TGI was determined as 32.2 µM in assay [7], 50.2 µM in [8], 33.4 µM in [9] and 27.9 µM in [10].
In the case of `C[C@H]1Oc2cc(cnc2N)-c2c(nn(C)c2C#N)CN(C)C(=O)c2ccc(F)cc21`, the GI50 in assay [1] is 0.452 µM; in assay [2], 18.8 µM; in assay [3], 59.1 µM; in assay [4], more than 89.3 µM; in assay [5], 5.24 µM; in assay [6], more than 100 µM. Besides, the GI50 is 59.5 µM in assay [7], 35.6 µM in assay [9] and 22.4 µM in assay [10]. The TGI in assay [1] is more than 30.6 µM; in [2] it was more than 100 µM; in assay [3] it was more than 100 µM; in [4], more than 100 µM; in assay [5], more than 100 µM; in assay [6] it was more than 100 µM. In addition, the TGI in assay [7], in assay [8], in assay [9] and in assay [10] was more than 100 µM throughout.
In the case of `CS(=O)(=O)CCCn1c(=O)c(Oc2ccc(F)cc2F)cc2cnc(NC3CCOCC3)nc21`, the GI50 in assay [1], in [2], in [3], in assay [4], in assay [5] and in assay [6] was more than 25 µM each time. Further, the GI50 in assay [7], in assay [8], in assay [9] and in assay [10] was more than 25 µM throughout. The TGI in assay [1], in assay [2], in [3], in assay [4], in assay [5] and in assay [6] was more than 25 µM in each case. In addition, the TGI in [7], in assay [8], in assay [9] and in [10] was more than 25 µM in each case.
`O=c1cc2oc3cc(O)c(O)cc3c(-c3ccccc3O)c-2cc1O`: the GI50 in assay [1] was 1.44 µM; in [2] it was 53 µM; in assay [3], 3.88 µM; in [4] it was 9.41 µM; in assay [5] it was 44.6 µM; in assay [6], 36.1 µM. For the same molecule, the GI50 was 6.16 µM in [7], 4.65 µM in [8], 32.7 µM in assay [9] and 6.25 µM in [10]. Also, the TGI in assay [1] was 8.36 µM; in assay [2] it was more than 100 µM; in [3], 39.1 µM; in [4] it was more than 100 µM; in [5] it was more than 100 µM; in [6] it was more than 100 µM. Moreover, the TGI is more than 100 µM in assay [7], more than 100 µM in assay [8], more than 100 µM in [9] and 86 µM in assay [10].
On to `COc1ccc(-c2oc(=O)ccc2-c2cc(OC)c(OC)c(OC)c2)cc1F`, for which the GI50 in [1] is 25.1 µM; in assay [2] it was 3.24 µM; in assay [3], 25.9 µM; in [4], 5.84 µM; in assay [5], 35.6 µM; in assay [6], 37.2 µM. The GI50 is 19.8 µM in [7], 1.57 µM in [8], 5.79 µM in [9] and 10.2 µM in [10]. In addition, the TGI in [1] was 92.9 µM; in assay [2], more than 100 µM; in assay [3] it was more than 100 µM; in assay [4] it was 71.9 µM; in [5], more than 100 µM; in assay [6], more than 100 µM. Also, the TGI in assay [7] is 80.3 µM; in [8], 9.44 µM; in assay [9], more than 100 µM; in assay [10], more than 100 µM.
As to `O=C(c1ccc(F)c(F)c1Nc1ccc(I)cc1F)N1CC(O)([C@@H]2CCCCN2)C1`, the GI50 in assay [1] was < 0.0194 µM and 0.0422 µM; in assay [2] it was < 0.01 µM and 0.00181 µM; in [3], < 0.0436 µM and 0.129 µM; in assay [4] it was 9.85 µM and > 10 µM; in [5], < 0.0277 µM and 0.0403 µM; in [6], 5.57 µM and > 9.27 µM. Further, the GI50 in [7] is 3.22 µM and > 9.01 µM; in [8], 1.64 µM and 3.35 µM; in assay [9], < 0.0215 µM and 0.0563 µM; in assay [10], < 0.01 µM and 0.00339 µM. The TGI is 0.134 µM and 0.294 µM in assay [1]; 0.0133 µM in assay [2]; 10 µM and > 10 µM in assay [3]; 22.8 µM and > 10 µM in assay [4]; 15.1 µM and > 10 µM in [5]; 18.8 µM and > 10 µM in [6]. The TGI in assay [7] is 18.5 µM and > 10 µM; in assay [8] it was 9.66 µM and > 10 µM; in [9] it was 14.4 µM and > 10 µM; in [10], < 0.0158 µM and 0.0384 µM.
`Cc1nc2ccccc2nc1-c1ccc(N=[N+]([O-])c2ccc(-c3nc4ccccc4nc3C)cc2)cc1`: the TGI is more than 89 µM in assay [1]; more than 100 µM in [2]; more than 100 µM in assay [3]; more than 100 µM in assay [4]; more than 100 µM in assay [5]; more than 100 µM in assay [6]. The TGI in assay [7], in [8], in [9] and in [10] was more than 100 µM in each case.
Take `CC1=CC(=O)[C@@H](O)[C@]2(C)[C@H]3[C@@]4(O)OC[C@]35[C@H]([C@@H](C)[C@H]4O)[C@@H](O)C(=O)O[C@@H]5C[C@@H]12`: the TGI in [1] was 4.45 µM; in assay [2], 0.445 µM; in assay [3], 1.7 µM; in assay [4], 2.11 µM; in assay [5] it was 5.4 µM; in assay [6], 1.67 µM. In addition, the TGI in assay [7] was 0.261 µM; in assay [8], more than 100 µM; in assay [9], 6.78 µM; in [10] it was 6.29 µM.
Take `COc1cc(CNCCCN2C(=O)c3ccc4c5c(ccc(c35)C2=O)C(=O)N(CCCNCc2cc(OC)c(OC)c(OC)c2)C4=O)cc(OC)c1OC`: the GI50 in [1] was 0.627 µM; in [2], 0.334 µM; in [3], 0.35 µM; in assay [4], 0.143 µM; in assay [5], 0.801 µM; in assay [6], 0.387 µM. The GI50 in assay [7] was 0.653 µM; in assay [8] it was 0.18 µM; in assay [9], 0.203 µM; in assay [10] it was 0.793 µM. Also, the TGI in assay [1] was determined as 1.41 µM; in [2], 1.02 µM; in assay [3] it was 1.22 µM; in assay [4], 0.382 µM; in assay [5], 2.79 µM; in [6], 1.57 µM. Also, the TGI in [7] was determined as 1.39 µM; in [8], 1.62 µM; in [9], 0.785 µM; in assay [10], 1.57 µM.
